Experimental data reported in ChEMBL document CHEMBL5154804, “Species-Selective Targeting of Fungal Hsp90: Design, Synthesis, and Evaluation of Novel 4,5-Diarylisoxazole Derivatives for the Combination Treatment of Azole-Resistant Candidiasis” (J Med Chem, 2022).

Legend:
Format in all cases: functional
Candida albicans [1] = test: Synergistic antifungal activity against fluconazole-resistant Candida albicans 901 assessed as inhibition of fungal growth in presence of fluconazole by checker board microdilution assay
Candida albicans [2] = test: Synergistic antifungal activity against fluconazole-resistant Candida albicans 100 assessed as inhibition of fungal growth in presence of fluconazole by checker board microdilution assay
Candida albicans [3] = test: Synergistic antifungal activity against fluconazole-resistant Candida albicans 311 assessed as inhibition of fungal growth in presence of fluconazole by checker board microdilution assay; also: test concentration or dose not given here
Candida albicans [4] = test: Synergistic antifungal activity against fluconazole-resistant Candida albicans 632 assessed as inhibition of fungal growth in presence of fluconazole by checker board microdilution assay
Candida albicans [5] = test: Synergistic antifungal activity against fluconazole-resistant Candida albicans 904 assessed as inhibition of fungal growth in presence of fluconazole by checker board microdilution assay; also: test concentration or dose not given here
Candida albicans [6] = test: Synergistic antifungal activity against fluconazole-resistant Candida albicans 103 assessed as inhibition of fungal growth in presence of fluconazole by checker board microdilution assay

Structure (SMILES) | MIC80 (Candida albicans [1]) [µg/mL] | MIC80 (Candida albicans [2]) [µg/mL] | MIC80 (Candida albicans [3]) [µg/mL] | MIC80 (Candida albicans [4]) [µg/mL] | MIC80 (Candida albicans [5]) [µg/mL] | MIC80 (Candida albicans [6]) [µg/mL]
CCNC(=O)c1noc(-c2cc(-c3ccc(CC)cc3)c(O)cc2O)c1-c1ccc(CN2CCOCC2)cc1 | 0.5 | 4 | 1 | 2 | 0.5 | 2
Cc1ccc(-c2cc(-c3onc(C(=O)NC4CCC4)c3-c3ccc(CN4CCCCC4)cc3)c(O)cc2O)cc1 | 4 | 2 | 2 | 1 | 2 | 4
CCNC(=O)c1noc(-c2cc(-c3ccc(C)cc3)c(O)cc2O)c1-c1ccc(CN2CCNC(=O)C2)cc1 | > 64 | > 64 | > 64 | > 64 | > 64 | > 64
CCNC(=O)c1noc(-c2cc(-c3ccc(C)cc3)c(O)cc2O)c1-c1ccc(CN2CCC(N(C)C)CC2)cc1 | 16 | 64 | 2 | 64 | 4 | 4
Cc1ccc(-c2cc(-c3onc(C(=O)N4CCC4)c3-c3ccc(CN4CCOCC4)cc3)c(O)cc2O)cc1 | 16 | 8 | > 64 | > 64 | 16 | > 64
Cc1ccc(-c2cc(-c3onc(C(=O)NC(C)C)c3-c3ccc(CN4CCCCC4)cc3)c(O)cc2O)cc1 | 4 | 8 | 8 | 2 | 2 | 4
CCNC(=O)c1noc(-c2cc(-c3ccccc3CC)c(O)cc2O)c1-c1ccc(CN2CCOCC2)cc1 | > 64 | > 64 | > 64 | > 64 | > 64 | > 64
CCCNC(=O)c1noc(-c2cc(-c3ccc(C)cc3)c(O)cc2O)c1-c1ccc(CN2CCCCC2)cc1 | 4 | 8 | 8 | 4 | 2 | 4
CCNC(=O)c1noc(-c2cc(-c3ccc(-c4ccccc4)cc3)c(O)cc2O)c1-c1ccc(CN2CCOCC2)cc1 | > 64 | > 64 | > 64 | > 64 | > 64 | > 64
Cc1ccc(-c2cc(-c3onc(C(=O)NC4COC4)c3-c3ccc(CN4CCCCC4)cc3)c(O)cc2O)cc1 | 32 | > 64 | > 64 | > 64 | > 64 | > 64
CCNC(=O)c1noc(-c2cc(-c3ccccc3Cl)c(O)cc2O)c1-c1ccc(CN2CCOCC2)cc1 | > 64 | > 64 | > 64 | > 64 | > 64 | > 64
CCNC(=O)c1noc(-c2cc(-c3cccc(F)c3)c(O)cc2O)c1-c1ccc(CN2CCOCC2)cc1 | 2 | 8 | 4 | 2 | 1 | 16
CCN(CC)C(=O)c1noc(-c2cc(-c3ccc(C)cc3)c(O)cc2O)c1-c1ccc(CN2CCOCC2)cc1 | 8 | 8 | 8 | 8 | 8 | 16
CCNC(=O)c1noc(-c2cc(-c3cccc(OC(F)(F)F)c3)c(O)cc2O)c1-c1ccc(CN2CCOCC2)cc1 | > 64 | > 64 | > 64 | > 64 | > 64 | > 64
CCNC(=O)c1noc(-c2cc(-c3ccc(C)cc3)c(O)cc2O)c1-c1ccc(CNC2CCCC2)cc1 | > 64 | > 64 | > 64 | > 64 | > 64 | > 64
Cc1ccc(-c2cc(-c3onc(C(=O)N4CCC4)c3-c3ccc(CN4CCCCC4)cc3)c(O)cc2O)cc1 | 16 | > 64 | 16 | > 64 | > 64 | > 64
